Test results from PMC4872784 (Oncotarget, 2016).
Values joined by “and” are separate entries in the source; they are usually repeats but may differ in a detail not shown here. Identical values can stand only once. Like-named read-outs stand apart in the source and are kept apart here.

Columns and labels:
HL-60 cells = assay: alamarBlue cytotoxicity assay, 48h; type: cell-based, human; details: HL-60 (AML), RPMI + 10% FBS
Procedure: (§1) Following subtraction of background fluorescence from all wells, fluorescence of drug-treated cells was normalized to that of vehicle (<0.5% DMSO)-treated cells to determine the effect of each drug concentration on viability. Each cell line was tested in triplicate and in at least three independent experiments. IC50 (concentration that inhibits cell growth by 50%) values were calculated using CompuSyn software (ComboSyn, Paramus, NJ). […] In addition several cell lines were initially cultured and tested in alternative media (Supplementary Table S2). […] Colony counts were normalized to vehicle-treated controls (100%). Three independent experiments were performed.
(§2) In most experiments, cytotoxicity was assessed using alamarBlue assays (Life Technologies, Grand Island, NY). In experiments using NAC and DFO, which can interfere with alamarBlue assay performance, Trypan Blue dye exclusion was used instead. […]
(§3) experiments performed in triplicate. […] Age refers to age […]
(§4) at the time of leukemia diagnosis of the patient from whom the cell line was derived. (–) Indicates information unavailable.
(§5) *Cell lines with FLT3/ITD mutations.
(§6) *The MV-4–11 cell line was derived from a patient with a biphenotypic B-myelomonocytic leukemia; K562 was derived […]
(§7) 1A. p53 status was obtained from http://cancer.sanger.ac.uk/cell_lines/cbrowse/all and http://p53.free.fr/Database/Cancer_ cell_lines/Leukemia_cancer. html. WT: wild type. Mut: mutant. SM: single mutation. DM: double mutation. MM: multiple mutations. Fs: Frameshift mutation. Null: protein expression undetectable.

Jurkat cells = assay: alamarBlue cytotoxicity assay, 48h; type: cell-based, human; details: Jurkat (T-ALL), RPMI + 10% FBS
Procedure: as §1, §2, §3, §4, §5, §6, §7

Kasumi-1 cells = assay: alamarBlue cytotoxicity assay, 48h; type: cell-based, human; details: Kasumi-1 (AML), RPMI + 10% FBS
Procedure: as §1, §2, §3, §4, §5, §6, §7

MOLT-16 cells = assay: alamarBlue cytotoxicity assay, 48h; type: cell-based, human; details: MOLT-16 (T-ALL), RPMI + 10% FBS
Procedure: as §1, §2, §3, §4, §5, §6, §7

MV-4-11 cells [1] = assay: alamarBlue cytotoxicity assay, 48h; type: cell-based, human; details: RPMI + 10% FBS
Procedure: as §1, §2, §3, §4, §5, §6, §7

RCH-ACV cells = assay: alamarBlue cytotoxicity assay, 48h; type: cell-based, human; details: RCH-ACV (B-ALL), RPMI + 10% FBS
Procedure: as §1, §2, §3, §4, §5, §6, §7

SEM cells = assay: alamarBlue cytotoxicity assay, 48h; type: cell-based, human
Procedure: as §1, §2, §3, §4, §5, §6, §7

SUPB15 cells = assay: alamarBlue cytotoxicity assay, 48h; type: cell-based, human
Procedure: as §1, §2, §3, §4, §5, §6, §7

THP-1 cells = assay: alamarBlue cytotoxicity assay, 48h; type: cell-based, human
Procedure: as §1, §2, §3, §4, §5, §6, §7

[2] = test system: 23 human leukemia cell lines; assay: alamarBlue cytotoxicity assay, panel summary; type: cell-based
Procedure: as §1
In most experiments, cytotoxicity was assessed using alamarBlue assays (Life Technologies, Grand Island, NY). In experiments using NAC and DFO, which can interfere with alamarBlue assay performance, Trypan Blue dye exclusion was used instead.

MOLM14 cells = assay: clonogenicity (colony formation in semi-solid medium); type: cell-based, human; details: 24h pretreatment
Procedure: as §1
(§8) After 7-10d (leukemia cells) or 10-14d (HSPCs), colonies (≥20 cells) were enumerated.

MV-4-11 cells [3] = assay: as above; type: cell-based, human; details: 24h pretreatment
Procedure: as §1, §8

normal human CD34+ HSPCs = assay: clonogenicity of normal HSPCs; type: cell-based
Procedure: Cryopreserved human CD34^+ HSPCs from normal adult donors (Cellular Therapy and Cell Processing Facility, Fred Hutchinson Cancer Center, Seattle, WA) were thawed and cultured for 24h in StemSpanSFEM medium (Stemcell Technologies, Vancouver, BC, Canada) containing 100 ng/ml recombinant human (rh) stem cell factor, 20 ng/ml rh thrombopoietin, and 100 ng/ml rh FLT3 ligand (PeproTech, Rocky Hill, NJ), in the presence of the indicated drug concentrations prior to plating for clonogenic assays.
Cells pretreated with ART-838, AS, or vehicle for 24h were diluted and plated in MethoCult medium (Stemcell Technologies). After 7-10d (leukemia cells) or 10-14d (HSPCs), colonies (≥20 cells) were enumerated.
Supplementary Figure S5: Effects of ART-838 and AS on clonogenicity of normal human CD34+ HSPCs. Normal human CD34+ HSPCs were pretreated with the indicated concentrations of ART-838, AS, or vehicle (0.5% DMSO) for 24 h then cultured in semi-solid medium for 10–14d before colonies were enumerated. A. Total hematopoietic colony counts, normalized to vehicle-treated controls (100%) and B. counts of types of colonies, i.e. erythroid (E); granulocyte/macrophage (sum of GM, G and M, combined) and multilineage progenitors (GEMM). Three independent experiments were performed. Data are represented as mean +/– SEM.
Supplementary Figure S6: ART-838 and AS concentration-response curves for KOPN8 and MOLM14. […]

MOLM14 xenograft = assay: subcutaneous MOLM14 AML xenograft; details: for average tumor mass less than vehicle-treated tumors: day 21
Procedure: CBCs were performed on day 23 (Supplementary Figure S8). Mice were euthanized when tumors reached an estimated 2000mg. […] B. Percent of Day 0 body weight. […] C. Kaplan-Meier survival analysis. […] D. Percent of Day 0 body weight.

[4] = plasma pharmacokinetics after single oral dose; details: NSG mice
Procedure: Plasma samples were obtained from 3-6 male NSG mice per time point (15min-24h after drug administration). Symbols represent concentrations of compound by LC/MS-MS detection.
Blood samples were collected via retro-orbital bleeding into EDTA-coated tubes. PK samples were centrifuged to obtain plasma, which was stored frozen (−80°C) until liquid chromatography/triple quadrupole mass spectrometry (LC/MS-MS) analysis.
were separated using an Agilent Zorbax Eclipse C18 column (2.1 mm x 50 mm, 3.5 μm) using gradient mobile phase
(acetonitrile and 2 mM ammonium acetate both containing 0.1% formic acid) and a gradient flow rate (0.2 to 0.4 ml/
min). An AB Sciex 5500 triple quadrupole mass spectrometer was used for detection. The m/z transitions used were
The calibration range was 5–1,000 ng/mL for all analytes. Mean drug concentrations were calculated at each time point. PK parameters (plasma
half-life [T1/2]; time to reach Cmax [Tmax]; maximum plasma concentration [Cmax]; area under the plasma concentration-
time curve [AUC] from time zero to the last measurable concentration [AUClast]; AUC from time zero to infinity [i.e.,
the AUClast + the extrapolated AUC from AUClast to infinity; AUC0–∞]; apparent volume of distribution [Vz/F]; body
weight-adjusted apparent clearance [CL/F/kg]) were calculated from mean drug concentration-time data using non-
the r2 of the elimination rate constant (λ ) was < 0.9, the AUC , CL/F, and T were not reported (NR).

[5] = plasma, single oral dose ART-838 50 mg/kg

C[C@@H]1CCC2[C@@H](C)[C@@H](CC(COP(=O)(Oc3ccccc3)Oc3ccccc3)C[C@H]3O[C@@H]4O[C@@]5(C)CCC6[C@H](C)CCC([C@H]3C)[C@]64OO5)O[C@@H]3O[C@@]4(C)CCC1[C@@]23OO4 (some centres unmarked) [ART-838, artemisinin-derived trioxane diphenylphosphate dimer 838]
IC50 (HL-60 cells): 0.107 ± 0.045 µM
IC50 (Jurkat cells): 0.255 ± 0.155 µM
IC50 (Kasumi-1 cells): 0.067 ± 0.023 µM
IC50 (MOLT-16 cells): 0.01 ± 0.002 µM
IC50 (MV-4-11 cells [1]; MV-4-11 (AML/B-ALL)): 0.025 ± 0.005 µM
IC50 (RCH-ACV cells): 0.036 ± 0.012 µM
IC50 (SEM cells; SEM (B-ALL), 48h, RPMI + 10% FBS, read-out: IC50): 0.029 ± 0.006 µM
-Fold Difference in IC50 between media (SEM cells; SEM, DMEM + 10% FBS vs RPMI+10% FBS): 9.2
IC50 (SEM cells; SEM, original medium DMEM + 10% FBS, read-out: IC50 in original medium): 0.268 µM
IC50 (SUPB15 cells; SUPB15 (B-ALL), 48h, RPMI + 10% FBS, read-out: IC50): 0.026 ± 0.003 µM
-Fold Difference in IC50 between media (SUPB15 cells; SUPB15, RPMI + 20% FBS vs RPMI+10% FBS): 3.0
IC50 (SUPB15 cells; SUPB15, original medium RPMI + 20% FBS, read-out: IC50 in original medium): 0.077 µM
IC50 (THP-1 cells; THP-1 (AML), 48h, RPMI + 10% FBS, read-out: IC50): 0.038 ± 0.009 µM
-Fold Difference in IC50 between media (THP-1 cells; THP-1, RPMI + 10% FBS + 50 μM β-mercaptoethanol vs RPMI+10% FBS): 2.5
IC50 (THP-1 cells; THP-1, original medium RPMI + 10% FBS + 50 μM β-mercaptoethanol, read-out: IC50 in original medium): 0.095 µM
fold more potent than AS (average) ([2]; across 23 leukemia cell lines): 88 fold
fold more potent than AS (range) ([2]; across 23 leukemia cell lines): 11-315 fold
IC50 ([2]; all 23 leukemia cell lines tested, 48h, read-out: IC50 range): 0.01 to 0.55 µM
IC50 ([2]; including those harboring MLLr and FLT3/ITD, read-out: IC50 against every acute leukemia tested): < 1 µM
clonogenicity (MOLM14 cells; ART-838 0.1 μM): completely abolished
clonogenicity (MV-4-11 cells [3]; ART-838 0.1 μM): completely abolished
reduction of normal erythroid and monogranulocytic colony-forming cells (normal human CD34+ HSPCs; 1 μM ART-838, 24h pretreatment): < 25%
average tumor mass less than vehicle-treated tumors (MOLM14 xenograft; two 5-day cycles ART-838 50 mg/kg/d oral gavage): 83%
complete and differential blood cell counts (MOLM14 xenograft; tumor-bearing NSG mice, day 23, after two 5-day cycles ART-838 50 mg/kg/d): within the normal range
fold longer T1/2 than DHA ([4]; ART-838 50 mg/kg vs DHA after AS 200 mg/kg, oral): ~6 fold
detection of theoretical metabolites DHA and ART-606 in plasma ([4]; after ART-838 administration, LC/MS-MS): did not detect DHA or ART-606
AUC0–∞ [4, 5]: 951 ng·h/mL
AUClast [4, 5]: 903 ng·h/mL
CL/F/kg [4, 5]: 867 mL/min/kg
Tmax [4, 5]: 1.5 h
Vz/F [4, 5]: 241 L/kg
T1/2 ([4]; plasma, single oral dose ART-838 50 mg/kg, 50 mg/kg): 3.19 h and > 3 h

C[C@H]1[C@H](OC(=O)CCC(=O)O)O[C@@H]2O[C@@]3(C)CC[C@H]4[C@H](C)CC[C@@H]1[C@@]24OO3 [AS, artesunate]
IC50 (HL-60 cells; Homo sapiens): 3 ± 0.6 µM
IC50 (Jurkat cells; Homo sapiens): 4.33 ± 1.18 µM
IC50 (Kasumi-1 cells; Homo sapiens): 1.72 ± 0.23 µM
IC50 (MOLT-16 cells; Homo sapiens): 1.63 ± 0.07 µM
IC50 (MV-4-11 cells [1]; Homo sapiens, MV4-11, MV-4-11 (AML/B-ALL)): 0.796 ± 0.096 µM
IC50 (RCH-ACV cells; Homo sapiens): 3.2 ± 0.54 µM
IC50 (SEM cells; Homo sapiens, SEM (B-ALL), 48h, RPMI + 10% FBS, read-out: IC50): 4.08 ± 1.18 µM
IC50 (SEM cells; Homo sapiens, SEM, original medium DMEM + 10% FBS, read-out: IC50 in original medium): 18.3 µM
IC50 (SUPB15 cells; Homo sapiens, SUP-B15, SUPB15 (B-ALL), 48h, RPMI + 10% FBS, read-out: IC50): 7.82 ± 1.22 µM
IC50 (SUPB15 cells; Homo sapiens, SUP-B15, SUPB15, original medium RPMI + 20% FBS, read-out: IC50 in original medium): 14.3 µM
IC50 (THP-1 cells; Homo sapiens, THP-1 (AML), 48h, RPMI + 10% FBS, read-out: IC50): 2.2 ± 0.48 µM
IC50 (THP-1 cells; Homo sapiens, THP-1, original medium RPMI + 10% FBS + 50 μM β-mercaptoethanol, read-out: IC50 in original medium): 11.1 µM
IC50 ([2]; Homo sapiens, 48 h, all 23 leukemia cell lines tested, 48h, read-out: IC50 range): 0.46 to 10.3 µM
IC50 ([2]; Homo sapiens, Leukemia Type: ALL, unit only on plot axis of Figure 1A, read-out: IC50 Range): 0.46 to 10 µM
IC50 ([2]; Homo sapiens, Leukemia Type: ALL, unit only on plot axis of Figure 1A, read-out: Mean IC50): 5 µM
IC50 ([2]; Homo sapiens, Leukemia Type: ALL, unit only on plot axis of Figure 1A, read-out: Median IC50): 4.8 µM
IC50 ([2]; Homo sapiens, Leukemia Type: AML, unit only on plot axis of Figure 1A, read-out: IC50 Range): 0.8 to 6.3 µM
IC50 ([2]; Homo sapiens, Leukemia Type: AML, unit only on plot axis of Figure 1A, read-out: Mean IC50): 2.3 µM
IC50 ([2]; Homo sapiens, Leukemia Type: AML, unit only on plot axis of Figure 1A, read-out: Median IC50): 1.7 µM
clonogenicity (MOLM14 cells; AS 10 μM): substantially reduced
clonogenicity (MV-4-11 cells [3]; AS 10 μM): substantially reduced
reduction of normal erythroid and monogranulocytic colony-forming cells (normal human CD34+ HSPCs; 10 μM AS, 24h pretreatment): < 25%
average tumor mass less than vehicle-treated tumors (MOLM14 xenograft; two 5-day cycles AS 200 mg/kg/d oral gavage): 44%
time by which plasma declined to undetectable levels ([4]; single oral dose AS 200 mg/kg): ≤ 1 h
